Results on two molecules are retold here after patent US6939864B1, “Animal feed compositions and methods of using the same” (Purdue Research Foundation, priority 2001, dated 2005).

Assay [1] can be described thus: Calf study: body weight change and fecal scores. The assay is classed as in vivo, calves. Conditions: mean ±SE. On the procedure:
Three days after they were born, calves were started on all milk, milk replacer. The calves were assigned randomly to one of four treatment groups control, β-glucan, Vitamin C, and β-glucan and Vitamin C. Each treatment is represented in a block (1 block has 4 calves and each room has 3 blocks). Initial weight and temperature were taken when calves were placed on study, then weekly for six more weeks.
Fecal scores, nasal and ocular discharges were recorded daily along with room temperature and humidity. Blood samples were taken every week for seven weeks; 10 ml heparinized tube for plasma to measure cortisol and ascorbic acid; 5 ml sodium citrate tube for hematocrits, granulocytes, lymphocytes and fibrinogen.
Calves were fed milk replacer equaling 10% of their body weight per day, which was given in two equal rations (morning and afternoon). Dry milk replacer was equal to 12.5% of amount fed. Calves on treatment […] were given β-glucan equaling 0.3125% of total intake. Calves on treatment 3 and 4 received 250 mg of Vitamin C twice a day.

The test system of assay [2] is serum cortisol (CS), ACTH and tumor necrosis factor-alpha (TNF). Description: Porcine study: serum ACTH, cortisol and TNF, basal and after I.V. LPS challenge. It counts as in vivo, pigs. To be noted: I.V. LPS 150 ug/kg, day 14 postweaning. An excerpt:
The objective of this study was to evaluate the potential benefit of supplementing the neonatal pig with Vitamin C (VC) and/or Beta-glucan (BG). Thirty-two crossbred pigs were selected at birth and assigned to one of four dietary treatment groups (n=8/group). Beginning on the day of birth, pigs received their respective treatments via an oral gavage on a daily basis until weaning at 2 weeks of age. Dietary treatment groups included Control (Con; no VC or BG), VC (75 ppm), BG (0.312 g/kg body weight) and VC+BG (75 ppm and 0.312 g/kg body weight). After weaning, pigs were placed on a starter ration containing their respective dietary treatments and a Phase 1 diet specific for the University of Missouri Swine unit for a 2 week period. Body weights were recorded every 3 days to adjust dietary treatment doses. On day 14 postweaning, blood samples were collected at 30-min intervals for one hour followed by an I.V. injection of lipopolysaccharide (LPS; 150 ug/kg). LPS is part of bacterial cell walls that initiates the immune response. Blood samples were collected at 30-min intervals for an additional 3-hour period following the LPS challenge. Blood samples were analyzed for serum cortisol (CS), ACTH and tumor necrosis factor-alpha (TNF) which are indicators of acute stress response to challenge (LPS).

With ascorbyl-2-polyphosphonate [AA], the “Mean BW change” value in assay [1] (dairy calves on milk replacer) is 1.48±0.12 kg/wk. Moreover, the mean fecal scores in assay [1] (scale of 1–4, 1=solid and 4=fluid) is 1.48±0.03.

`O=C1O[C@H]([C@@H](O)CO)C(O)=C1O` [VC, ascorbic acid]: in assay [2], the “TNF response to the LPS challenge” value is “more rapid decline in serum TNF”. In addition, the “CS response to the LPS challenge” value in assay [2] (compared to Con group) is listed as “lower”.
